Tests used:
Format in all cases: in vivo, rat
[1] = tested on: Spontaneous hypertensive rats (SHRs); test: Blood pressure after one single oral administration in SHRs; conditions: M: SHR
Text: (§2) Spontaneous hypertensive rats (SHRs) and Wistar-Kyoto strains of normotensive rats (WKYs) are chosen to be experiment animals, wherein the SHRs would spontaneously suffer from the hypertension when they grow to 5˜6 weeks old. Herein, 8-week old SHRs are used for carrying out the experiments, and these 8-week old SHRs and WKYs are pre-fed with chew diet and water for 5 weeks before starting the experiments. […] The rats in the 9 groups are fed with the main feeding stuffs (i.e., chew diet and water) during first week to 13-th week. Moreover, the rats in the 9 groups are fed with the main feeding stuffs as well as the extract feeding stuffs at 14-th week in order to accomplish one single oral administration experiments; therefore, the rats in the 9 groups are continuously fed with the main feeding stuffs as well as the extract feeding stuffs starting from 14-th week and continuing for 8 weeks, so as to carry out one chronic administration experiment.
According to the body surface area (BSA) equation provided by Food and Drug Administration (FDA), the BSA of a standard person with the body height of 170 cm and the body weight of 65 kg can be calculated through the mathematical calculation formula of BSA (m^2)=0.003207{H^0.3×W^[0.07285−(0.0188×LOG (w))]}, wherein the BSA value obtained from aforesaid calculation formula for the standard person is 1.762 m^2. On the other hand, the BSA value for the SHRs can also be calculated through the mathematical calculation formula of BSA (m^2) (8.99 W^0.6899)/100, and the BSA value is 0.049 m^2. Moreover, because the experiments use “2.2 g” as a standard feeding dosage, the “1-fold” in Table 6 can be calculated to 176 mgkg^−1day^−1 according to BSA value of the SHRs. Herein, it needs to further explain that, M group is taken as a positive control group because amlodipine is a well-known blood pressure lowering substance. In the experiments, the lowest effective dosage (i.e., 1-fold dosage) for amlodipine is defined to 0.4 mgkg^−1day^−1.

[2] = tested on: Spontaneous hypertensive rats (SHRs); test: Blood pressure in 8-week chronic administration experiment in SHRs; conditions: M: SHR
Text: as §2
Moreover, because the experiments use “2.2 g” as a standard feeding dosage, the “1-fold” in Table 6 can be calculated to 176 mgkg^−1day^−1 according to BSA value of the SHRs. Herein, it needs to further explain that, M group is taken as a positive control group because amlodipine is a well-known blood pressure lowering substance. In the experiments, the lowest effective dosage (i.e., 1-fold dosage) for amlodipine is defined to 0.4 mgkg^−1day^−1.

[3] = tested on: Spontaneous hypertensive rats (SHRs); test: Blood lipids of SHRs; conditions: M: SHR, amlodipine 0.4 mgkg-1day-1
Text: (§1) Spontaneous hypertensive rats (SHRs) and Wistar-Kyoto strains of normotensive rats (WKYs) are chosen to be experiment animals, wherein the SHRs would spontaneously suffer from the hypertension when they grow to 5˜6 weeks old. Herein, 8-week old SHRs are used for carrying out the experiments, and these 8-week old SHRs and WKYs are pre-fed with chew diet and water for 5 weeks before starting the experiments. Herein, it needs to further explain that, the experiment groups listed in Table 6 are divided to 9 groups. The rats in the 9 groups are fed with the main feeding stuffs (i.e., chew diet and water) during first week to 13-th week. Moreover, the rats in the 9 groups are fed with the main feeding stuffs as well as the extract feeding stuffs at 14-th week in order to accomplish one single oral administration experiments; therefore, the rats in the 9 groups are continuously fed with the main feeding stuffs as well as the extract feeding stuffs starting from 14-th week and continuing for 8 weeks, so as to carry out one chronic administration experiment.

[4] = tested on: Spontaneous hypertensive rats (SHRs); test: Heart rate of SHRs; conditions: M: SHR, amlodipine 0.4 mgkg-1day-1
Text: as §1, with “experiment. The designed experiment groups consist of:” for “experiment.”
Continuously, please refer to following Table 10, which record the heart rate data of SHRs and WKYs in the experiment groups listed in Table 6. From Table 10, it can find that the heart rate of SHRs in 1R, 5R, 1RM, and 5RM groups are normal comparing to the heart rate of SHRs in C group. Moreover, the heart rate of SHRs in W1R and W5R groups are normal comparing to the heart rate of WKYs in WC group.

[5] = tested on: Spontaneous hypertensive rats (SHRs); test: Liver function indexes of SHRs; conditions: M: SHR, amlodipine 0.4 mgkg-1day-1
Text: as §1, with “experiment. The designed experiment groups consist of:” for “experiment.”
With reference to following Table 11, which record the liver function indexes data of SHRs and WKYs in the experiment groups listed in Table 6. […] Wherein the liver function indexes data include: aspartate aminotransferase (AST), alanine aminotransferase (ALT), alkaline phosphatase, albumin, globulin, γ-Glutamyltransferase (γ-GT), total protein, and A/G ratio.

[6] = tested on: Spontaneous hypertensive rats (SHRs); test: Kidney function, electrolytes and creatine phosphokinase indexes of SHRs; conditions: M: SHR, amlodipine 0.4 mgkg-1day-1
Text: as §1, with “experiment. The designed experiment groups consist of:” for “experiment.”
Continuously, please refer to following Table 12, which record the data of kidney function indexes, electrolytes indexes and creatine phosphokinase indexes of SHRs and WKYs in the experiment groups listed in Table 6. From Table 12, it can find that the kidney function indexes, the electrolytes indexes and the creatine phosphokinase indexes of SHRs in 1R, 5R, 1RM, and 5RM groups are normal comparing to the kidney function indexes, the electrolytes indexes and the creatine phosphokinase indexes of SHRs in C group. Moreover, the kidney function indexes, the electrolytes indexes and the creatine phosphokinase indexes of SHRs in W1R and W5R groups are normal comparing to the kidney function indexes, the electrolytes indexes and the creatine phosphokinase indexes of WKYs in WC group. Wherein the kidney function indexes include blood urea nitrogen (BUN), creatinine and uric acid, and the electrolytes indexes include sodium and potassium. […] It is well know that, when the kidney is at a kidney failure situation, the concentration of creatinine and uric acid in blood serum would increase. […] It is well know that, when the muscle is subject to damage, the concentration of CPK in blood serum would increase.

[7] = amlodipine 0.4 mgkg-1day-1, 0 hr
[8] = amlodipine 0.4 mgkg-1day-1, 4 hr
[9] = amlodipine 0.4 mgkg-1day-1, 8 hr
[10] = amlodipine 0.4 mgkg-1day-1, 24 hr
[11] = amlodipine 0.4 mgkg-1day-1, 0 week
[12] = amlodipine 0.4 mgkg-1day-1, 2 week
[13] = amlodipine 0.4 mgkg-1day-1, 4 week
[14] = amlodipine 0.4 mgkg-1day-1, 6 week
[15] = amlodipine 0.4 mgkg-1day-1, 8 week

CCOC(=O)C1=C(COCCN)NC(C)=C(C(=O)OC)C1c1ccccc1Cl (centres unmarked) [amlodipine]
DBP [1, 7]: 143 ± 2.9 mmHg | SBP [1, 7]: 180 ± 3.6 mmHg | DBP [1, 8]: 143 ± 3.8 mmHg | SBP [1, 8]: 178 ± 5.4 mmHg | DBP [1, 9]: 134 ± 4.9 mmHg | SBP [1, 9]: 171 ± 3.1 mmHg | DBP [1, 10]: 137 ± 4.2 mmHg | SBP [1, 10]: 175 ± 7.6 mmHg | DBP [2, 11]: 143 ± 2.9 mmHg | SBP [2, 11]: 180 ± 3.6 mmHg | DBP [2, 12]: 145 ± 3.6 mmHg | SBP [2, 12]: 178 ± 5.4 mmHg | DBP [2, 13]: 140 ± 3.8 mmHg | SBP [2, 13]: 171 ± 3.1 mmHg | DBP [2, 14]: 139 ± 1.9 mmHg | SBP [2, 14]: 175 ± 7.6 mmHg | DBP [2, 15]: 135 ± 2.7 mmHg | SBP [2, 15]: 175 ± 7.6 mmHg | Cholesterol [3]: 79.8 ± 3.6 mg/dL | Cholesterol/HDL-C [3]: 1.3 ± 0.1 | HDL-C [3]: 60.3 ± 1.9 mg/dL | LDL-C [3]: 10.0 ± 0.7 mg/dL | Triacylglycerol [3]: 69.3 ± 6.8 mg/dL | Heart rate ([4]; 0 hr): 402 ± 6.9 bpm | Heart rate ([4]; 2 week): 402 ± 6.7 bpm | Heart rate ([4]; 4 week): 404 ± 4.8 bpm | Heart rate ([4]; 6 week): 403 ± 6.1 bpm | Heart rate ([4]; 8 week): 402 ± 3.0 bpm | Heart rate ([4]; 4 hr): 401 ± 6.5 bpm | Heart rate ([4]; 8 hr): 400 ± 4.8 bpm | Heart rate ([4]; 24 hr): 402 ± 4.9 bpm | A/G ratio [5]: 2.1 ± 0.4 | ALT [5]: 85.7 ± 6.1 U/L | AST [5]: 125.8 ± 4.6 U/L | Albumin [5]: 5.4 ± 0.2 g/dL | Alkaline phosphatase [5]: 143.3 ± 7.6 IU/L | Globulin [5]: 2.6 ± 0.1 g/dL | Total protein [5]: 8.2 ± 0.1 g/dL | BUN [6]: 23.7 ± 0.8 mg/dL | Creatinine [6]: 0.48 ± 0.1 mg/dL | Creatinine phosphokinase [6]: 287.0 ± 12.2 U/L | Potassium [6]: 8.8 ± 0.4 meq/L | Sodium [6]: 152.4 ± 0.9 meq/L | Uric acid [6]: 5.8 ± 0.6 mg/dL
